In paper PMC5344539, “Nematode neuropeptides as transgenic nematicides” (PLoS Pathogens, 2017):

How the values were obtained:
[1] = test system: S. carpocapsae infective juveniles (IJs); assay: S. carpocapsae host-finding assay (non-target); format: in vivo, Steinernema carpocapsae; conditions: Fig 5E; chemotaxis towards insect host Galleria mellonella; 100 IJs incubated 24 h in 100 μM uNLP; n = 5; control 0.2315
Procedure: S. carpocapsae were cultured in Galleria mellonella at 23°C. Infective juveniles (IJs) were collected using a White trap in PBS. Freshly emerged IJs were used for each assay. 100 IJs were incubated for 24 hours in 100 μM of selected uNLPs, and host-finding assays (n = 5) performed as in Morris et al..

[2] = test system: G. pallida J2s; assay: Plant protection assay, C. reinhardtii secreting uNLPs; format: in vivo, Globodera pallida; conditions: Fig 4C; peptide secreted by transgenic C. reinhardtii culture in tomato invasion arena with 500 J2s; control = 100%; mean
Procedure: (§1) Tomato seeds were sterilised with 2.5% NaOCl for 15 minutes, washed 5 times in ddH20 and germinated on 0.5% Murashige and Skoog plates at 23°C. […] Invasion assays were performed by mixing 500 pre-treated M. incognita or G. pallida J2s with agar slurry and a single tomato seedling (2 days post germination) in a 6 well plate. Assays were left at 23°C for 24 hours in the case of M. incognita and at 18°C for 24 hours in the case of G. pallida under a 16 hour light and 8 hour darkness cycle. Seedlings were stained using acid fuschin [69] and the number of nematodes within the roots counted. At least five seedlings were used for M. incognita infections assays, with at least 15 seedlings used for G. pallida infections assays (due to increased variation).
(§2) B. subtilis were grown overnight in LB media containing ampicillin (100 μg/ml) at 37°C with shaking, and harvested in the log phase of growth determined by measuring OD600nm. Five ml of culture at 0.5 OD was spun down and the pellet mixed with 3 ml of agar slurry and 500 J2s from either G. pallida or M. incognita. C. reinhardtii clones were grown at 23°C with shaking, cultures in the log phase were measured at OD750 and 5 ml of culture at 0.5 OD was pelleted by centrifugation. C. reinhardtii pellets were mixed with 3 ml of agar slurry and 500 J2s from either G. pallida or M. incognita. Plant invasion assays were performed as described above. […]

[3] = test system: M. incognita J2s; assay: Plant protection assay, B. subtilis secreting uNLPs; format: in vivo, Meloidogyne incognita; conditions: Fig 4B; peptide secreted by transgenic B. subtilis culture in tomato invasion arena with 500 J2s; control = 100%; mean
Procedure: as §1, §2

[4] = test system: M. incognita J2s; assay: Plant protection assay, C. reinhardtii secreting uNLPs; format: in vivo, Meloidogyne incognita; conditions: Fig 4A; peptide secreted by transgenic C. reinhardtii culture in tomato invasion arena with 500 J2s; relative to untransformed C. reinhardtii = 100%; mean
Procedure: as §1, §2

[5] = test system: G. pallida J2s; assay: Tomato invasion assay with uNLP pre-treated J2s; format: in vivo, Globodera pallida; conditions: 100 μM uNLP, 24 h; tomato cv. Moneymaker; relative to controls
Procedure: Predicted uNLPs from both M. incognita and G. pallida were synthesised by EZBiolab and dissolved into pH adjusted ddH2O to make a 5 mM stock which was aliquoted and stored at -20°C. J2s of both M. incognita and G. pallida were incubated for 24 hours in 200 μl of each peptide in a 24 well plate (SPL Lifesciences, South Korea) at a defined concentration.
as §1

[6] = test system: G. pallida J2s; assay: Plant protection assay, B. subtilis secreting uNLPs; format: in vivo, Globodera pallida; conditions: Fig 4D; peptide secreted by transgenic B. subtilis culture in tomato invasion arena with 500 J2s; control = 100%; mean
Procedure: as §1, §2

## SFDSFTGPGFTGLD [Mi-NLP-15b, predicted unamidated NLP perfectly conserved between M. incognita and G. pallida; synthesised, also secreted from transgenic microbes]
[1]
  CI score: 0.2225
[2]
  % Invasion: 30.95%
[3]
  % Invasion: 26.63%
[4]
  % Invasion: 10.82%
[5]
  effect on host invasion (in words): does not inhibit host invasion
[6]
  % Invasion: 51.98%
